Experimental data as given in patent US20080051438A1, “Preventive/Therapeutic Compositions Useful for Treating Cardiovascular Diseases” (priority 2006, published 2008).
Marks after values point to notes of the source that are not given here.

Key:
hypertensive patients [1] = assay: Special investigation of combined use of cilnidipine and ARB: changes in heart rate; type: in vivo, human; conditions: for heart rate after starting the combined administration / heart rate after starting the combined use: 12 weeks and later up to last measurement; for heart rate, aft. / heart rate, bef.: all availability cases; for heart rate, bef. use / heart rate, aft. use: only ARB
Experimental: A special investigation was conducted in various medical centers, compiled, and analyzed to evaluate the safety and availability of the combined use of cilnidipine and at least one angiotensin II receptor blocker.
The subjects of the investigation were hypertensive patients which were adapted to cilnidipine. Combined administration of cilnidipine and ARB was started for the treatment of hypertension in these patients.
A prospective continuous investigation method was conducted. Such a method is continuously conducted with the registered cases with the combined administration of cilnidipine (Atelec®) and ARB, until the number of cases reaches the contracted cases for each center.
Regarding the administration method of cilnidipine, 5 to 10 mg of cilnidipine was orally administered after breakfast once a day. Meanwhile, the amount may increase or decrease depending on patient's age, symptoms, or the like. When the effect is insufficient, the amount can be increased to 20 mg once a day. The dosing period of cilnidipine was set to 12 weeks in principle.
The following items were tracked during the investigation: patient's background (sex), existence or nonexistence of previous therapeutic agents and the content thereof, targeted blood pressure (systolic BP/diastolic BP), the conditions of administration of cilnidipine and ARB, antihypertensives used in combination (those other than cilnidipine or ARB), clinical course (systolic BP/diastolic BP/heart rate), and occurrence of side-effects. As for the availability of the combined administration, in the 12th week after starting the combined administration, the doctor in attendance judged the degree of the blood pressure controls on a three-point scale of “well-controlled”, “nearly well-controlled” and “poorly-controlled”, referring to the changes in the systolic and diastolic BP. As for the safety and availability analysis for each patient background, Fisher's exact probability test or the X^2 test was used. As for the blood pressure and heart rate, the average value and the standard deviation were calculated for the subjects before the combined administration (within 4 weeks before starting the combined administration), and data after starting the combined administration were determined on each observation day, and analysis was conducted by using a paired t-test. The test was conducted as the two-sided test and less than 5% of the risk rate was regarded as significant. Furthermore, side-effects were compiled based on the naming of preferred terms (PT) of MedDRA/J ver 8.0.
Table 7 and FIG. 2 show the number of cases for which the blood pressure was measured, and the changes in the measured values of systolic BP, diastolic BP, and heart rate were measured at the following time points: before starting the combined administration, 4 weeks, 8 weeks, and 12 weeks after starting the combined administration, and the last measurement, which was 222.43 days in average from the start of the combined administration, n=2919). […] Then, it continued to slowly decrease, and the a stable change was seen up to 12 weeks after the start.

hypertensive patients [2] = assay: Special investigation of combined use of cilnidipine and ARB: changes in systolic and diastolic blood pressure; type: in vivo, human; conditions: only ARB, then cilnidipine singularly added; last measurement (222.03±143.88 days)
[3] = all availability cases with heart rate 75 or higher and less than 85 beats/min. before combined use
[4] = all availability cases with heart rate 85 beats/min. or higher before combined use
[5] = only ARB then cilnidipine added, cases with heart rate 75 or higher and less than 85 beats/min. before combined use
[6] = only ARB then cilnidipine added, cases with heart rate 85 beats/min. or higher before combined use

## COCCOC(=O)C1=C(C)NC(C)=C(C(=O)OC/C=C/c2ccccc2)C1c1cccc([N+](=O)[O-])c1 (racemic) [cilnidipine, 2-methoxyethyl-3-phenyl-2(E)-propenyl(±)-1,4-dihydro-2,6-dimethyl-4-(3-nitrophenyl)-3,5-pyridinedicarboxylate]
Hypertensive patients [1]; [3]
  heart rate before starting the combined use: 79.19±2.73 beats/min.
  heart rate after starting the combined administration: 76.28±8.93 beats/min.
Hypertensive patients [1]; [4]
  heart rate before starting the combined use: 93.48±7.28 beats/min.
  heart rate after starting the combined administration: 84.57±11.17 beats/min.
Hypertensive patients [1]; cilnidipine + ARB, 4 wks after use
  heart rate, aft.: 73.80 ± 10.80 beat/min.
Hypertensive patients [1]; cilnidipine + ARB, 8 wks after use
  heart rate, aft.: 72.87 ± 10.53 beat/min.
Hypertensive patients [1]; cilnidipine + ARB, 12 wks after use
  heart rate, aft.: 73.61 ± 10.57 beat/min.
Hypertensive patients [1]; cilnidipine + ARB, before combined use, 1,815 cases
  heart rate, bef.: 75.40 ± 11.47 beat/min.
Hypertensive patients [1]; cilnidipine + ARB, last measurement (222.43 days in average)
  heart rate, aft.: 73.18 ± 10.37 beat/min.
Hypertensive patients [1]; value before combined use of the 557 cases measured at 8 wks
  heart rate, bef.: 73.83 ± 10.49 beat/min.
Hypertensive patients [1]; value before combined use of the 664 cases measured at 12 wks
  heart rate, bef.: 75.33 ± 10.98 beat/min.
Hypertensive patients [1]; value before combined use of the 765 cases measured at 4 wks
  heart rate, bef.: 75.06 ± 11.46 beat/min.
Hypertensive patients [1]; value before combined use of the 1,615 cases with last measurement
  heart rate, bef.: 75.18 ± 11.30 beat/min.
Hypertensive patients [1]; [5]
  heart rate before starting the combined use: 79.24±2.71 beats/min.
  heart rate after starting the combined use: 76.87±8.37 beats/min.
Hypertensive patients [1]; [6]
  heart rate before starting the combined use: 93.64±6.90 beats/min.
  heart rate after starting the combined use: 84.30±10.58 beats/min.
Hypertensive patients [1]; then cilnidipine added, value before combined use of the 229 cases measured at 8 wks
  heart rate, bef. use: 72.97 ± 10.16 beat/min.
Hypertensive patients [1]; then cilnidipine added, value before combined use of the 249 cases measured at 12 wks
  heart rate, bef. use: 73.98 ± 10.44 beat/min.
Hypertensive patients [1]; then cilnidipine added, value before combined use of the 308 cases measured at 4 wks
  heart rate, bef. use: 73.40 ± 10.54 beat/min.
Hypertensive patients [1]; then cilnidipine added, value before combined use of the 648 cases with last measurement
  heart rate, bef. use: 74.26 ± 10.58 beat/min.
Hypertensive patients [1]; then cilnidipine singularly added, 4 wks after the use
  heart rate, aft. use: 72.49 ± 10.25^a beat/min.
Hypertensive patients [1]; then cilnidipine singularly added, 8 wks after the use
  heart rate, aft. use: 72.62 ± 10.60 beat/min.
Hypertensive patients [1]; then cilnidipine singularly added, 12 wks after the use
  heart rate, aft. use: 72.54 ± 10.28^a beat/min.
Hypertensive patients [1]; then cilnidipine singularly added, before combined use, 738 cases
  heart rate, bef. use: 74.46 ± 10.76 beat/min.
Hypertensive patients [1]; then cilnidipine singularly added, last measurement (222.03±143.88 days)
  heart rate, aft. use: 73.24 ± 10.51^a beat/min.
Hypertensive patients [2]
  systolic BP, aft. use: 139.73 ± 15.77^b mmHg
